Experimental data as given in ChEMBL document CHEMBL1201862, “PubChem BioAssay data set” (2004).
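Each compound was tested at five concentrations against cells in 96-well plates for 48 hours. At the GI50, growth is halved.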 Activity calls are given as the source filed them. Rule as the data show it: active = GI50 up to about 1.1 µM and inactive = higher.

Columns and labels:
Test in all cases: inhibition of tumour cell growth, NCI panel, 48 h
SW-620 = system: SW-620
SK-OV-3 = system: SK-OV-3
RPMI-8226 = system: RPMI-8226
M14 = system: M14
SK-MEL-5 = system: SK-MEL-5
OVCAR-5 = system: OVCAR-5
EKVX = system: EKVX
IGROV-1 = system: IGROV-1
SK-MEL-2 = system: SK-MEL-2
OVCAR-3 = system: OVCAR-3
HOP-62 = system: HOP-62
SNB-75 = system: SNB-75
Malme-3M = system: Malme-3M
NCI-H226 = system: NCI-H226
OVCAR-4 = system: OVCAR-4
LOX IMVI = system: LOX IMVI
A549 = system: A549
HOP-18 = system: HOP-18
KM-20L2 = system: KM-20L2
KM12 = system: KM12
SN12C = system: SN12C
UACC-257 = system: UACC-257
UACC-62 = system: UACC-62
M19-MEL = system: M19-MEL
SK-MEL-28 = system: SK-MEL-28
HOP-92 = system: HOP-92
TK-10 = system: TK-10
U-251 = system: U-251
DMS-273 = system: DMS-273
SF-268 = system: SF-268
NCI-H23 = system: NCI-H23
HCT-15 = system: HCT-15
LXFL 529 = system: LXFL 529
CCRF-CEM = system: CCRF-CEM
MOLT-4 = system: MOLT-4
UO-31 = system: UO-31
HCC 2998 = system: HCC 2998
SF-539 = system: SF-539
SNB-78 = system: SNB-78
ACHN = system: ACHN
COLO 205 = system: COLO 205
SNB-19 = system: SNB-19
CAKI-1 = system: CAKI-1
HCT-116 = system: HCT-116
SF-295 = system: SF-295
OVCAR-8 = system: OVCAR-8
NCI-H460 = system: NCI-H460
DLD-1 = system: DLD-1
HL-60 = system: HL-60
HT-29 = system: HT-29
NCI-H522 = system: NCI-H522
786-0 = system: 786-0
SR = system: SR
K562 = system: K562
PC-3 = system: PC-3
Hs-578T = system: Hs-578T
MDA-MB-435 = system: MDA-MB-435
A498 = system: A498
MDA-N = system: MDA-N
MCF7 = system: MCF7
BT-549 = system: BT-549
T47D = system: T47D
MDA-MB-231 = system: MDA-MB-231
RXF 393 = system: RXF 393
DU-145 = system: DU-145
NCI/ADR-RES = system: NCI/ADR-RES

With `Cc1ccc(C(=O)c2nnc(C(=O)c3ccc(C)cc3)nn2)cc1` the GI50 (SW-620) was 20.8 µM (inactive), the GI50 (SK-OV-3) was 19.3 µM (inactive) and the GI50 (RPMI-8226) was 30.5 µM (inactive). For the same compound, the GI50 (M14) was 22.2 µM (inactive), the GI50 (SK-MEL-5) was 50.9 µM (inactive) and the GI50 (OVCAR-5) was 81.1 µM (inactive). For the same compound, the GI50 (EKVX) was 59.6 µM (inactive), the GI50 (IGROV-1) was 95.9 µM (inactive) and the GI50 (SK-MEL-2) was 38.4 µM (inactive). For the same compound, the GI50 (OVCAR-3) was 43.4 µM (inactive), the GI50 (HOP-62) was 39.4 µM (inactive) and the GI50 (SNB-75) was > 100 µM (inactive). The GI50 (Malme-3M) was 65.5 µM (inactive), the GI50 (NCI-H226) was 56 µM (inactive) and the GI50 (OVCAR-4) was 41.1 µM (inactive). For the same compound, the GI50 (LOX IMVI) was 17.6 µM (inactive), the GI50 (A549) was 73.5 µM (inactive) and the GI50 (HOP-18) was 33.4 µM (inactive). For the same compound, the GI50 (KM-20L2) was 65.9 µM (inactive), the GI50 (KM12) was 62.7 µM (inactive) and the GI50 (SN12C) was 45.3 µM (inactive). For the same compound, the GI50 (UACC-257) was 58.3 µM (inactive), the GI50 (UACC-62) was 36.1 µM (inactive) and the GI50 (M19-MEL) was 26.1 µM (inactive). For the same compound, the GI50 (SK-MEL-28) was 51.3 µM (inactive), the GI50 (HOP-92) was 32.1 µM (inactive) and the GI50 (TK-10) was 78.3 µM (inactive). For the same compound, the GI50 (U-251) was 40.7 µM (inactive), the GI50 (DMS-273) was 39.4 µM (inactive) and the GI50 (SF-268) was 21 µM (inactive). For the same compound, the GI50 (NCI-H23) was > 100 µM (inactive), the GI50 (HCT-15) was 76 µM and the GI50 (LXFL 529) was 53.2 µM (inactive). For the same compound, the GI50 (CCRF-CEM) was 18.8 µM (inactive), the GI50 (MOLT-4) was 34.1 µM (inactive) and the GI50 (UO-31) was 39.2 µM (inactive). For the same compound, the GI50 (HCC 2998) was > 100 µM (inactive), the GI50 (SF-539) was 38.9 µM (inactive) and the GI50 (SNB-78) was > 100 µM (inactive). For the same compound, the GI50 (ACHN) was 76 µM (inactive), the GI50 (COLO 205) was 70.1 µM (inactive) and the GI50 (SNB-19) was 41.5 µM (inactive). For the same compound, the GI50 (CAKI-1) was 74.3 µM (inactive), the GI50 (HCT-116) was 57.5 µM (inactive) and the GI50 (SF-295) was 52.8 µM (inactive). For the same compound, the GI50 (OVCAR-8) was 34.9 µM (inactive), the GI50 (NCI-H460) was 18.4 µM (inactive) and the GI50 (DLD-1) was 43.2 µM (inactive). For the same compound, the GI50 (HL-60) was 19.7 µM (inactive), the GI50 (HT-29) was 61.9 µM (inactive) and the GI50 (NCI-H522) was 35.5 µM (inactive). For the same compound, the GI50 (786-0) was 28.2 µM (inactive), the GI50 (SR) was 5.45 µM (inactive) and the GI50 (K562) was 23.3 µM (inactive).

`COc1cccc2c1Cc1cc(-c3ccccc3)[n+](C)n1-2` was tested, and the GI50 (SW-620) was 6.1 µM (inactive), the GI50 (SK-OV-3) was 33.2 µM (inactive) and the GI50 (RPMI-8226) was 4.18 µM (inactive). For the same compound, the GI50 (M14) was 8.43 µM (inactive), the GI50 (SK-MEL-5) was 8.89 µM (inactive) and the GI50 (OVCAR-5) was 23.9 µM (inactive). The GI50 (EKVX) was 1.5 µM (inactive), the GI50 (PC-3) was 11.4 µM (inactive) and the GI50 (IGROV-1) was 12.5 µM (inactive). The GI50 (Hs-578T) was 25.1 µM (inactive), the GI50 (SK-MEL-2) was 17.5 µM (inactive) and the GI50 (MDA-MB-435) was 11.8 µM (inactive). For the same compound, the GI50 (OVCAR-3) was 2.92 µM (inactive), the GI50 (HOP-62) was 42.3 µM (inactive) and the GI50 (SNB-75) was 20 µM (inactive). For the same compound, the GI50 (Malme-3M) was 10.3 µM (inactive), the GI50 (NCI-H226) was 11.7 µM (inactive) and the GI50 (OVCAR-4) was 3.19 µM (inactive). The GI50 (LOX IMVI) was 10 µM (inactive), the GI50 (A549) was 27.9 µM (inactive) and the GI50 (A498) was 31.5 µM (inactive). For the same compound, the GI50 (MDA-N) was 11.9 µM (inactive), the GI50 (KM12) was 11.5 µM (inactive) and the GI50 (SN12C) was 8.85 µM (inactive). For the same compound, the GI50 (UACC-257) was 3.58 µM (inactive), the GI50 (MCF7) was 2.3 µM (inactive) and the GI50 (UACC-62) was 15 µM (inactive). For the same compound, the GI50 (BT-549) was 22.5 µM (inactive), the GI50 (T47D) was 3.4 µM (inactive) and the GI50 (SK-MEL-28) was 46.1 µM (inactive). The GI50 (HOP-92) was 13.7 µM (inactive), the GI50 (TK-10) was 28.8 µM (inactive) and the GI50 (U-251) was 5.36 µM (inactive). The GI50 (SF-268) was 19.9 µM (inactive), the GI50 (NCI-H23) was 9.77 µM (inactive) and the GI50 (HCT-15) was 31.3 µM. The GI50 (MDA-MB-231) was 13.2 µM (inactive), the GI50 (CCRF-CEM) was 3.37 µM (inactive) and the GI50 (MOLT-4) was 2.92 µM (inactive). For the same compound, the GI50 (RXF 393) was 19 µM (inactive), the GI50 (UO-31) was 22.5 µM (inactive) and the GI50 (HCC 2998) was 10.2 µM (inactive). The GI50 (SF-539) was 5.4 µM (inactive), the GI50 (ACHN) was 19.2 µM (inactive) and the GI50 (COLO 205) was 1.38 µM (inactive). The GI50 (SNB-19) was 28.9 µM (inactive), the GI50 (CAKI-1) was 66.8 µM (inactive) and the GI50 (HCT-116) was 3.5 µM (inactive). The GI50 (SF-295) was 20.3 µM (inactive), the GI50 (OVCAR-8) was 6.84 µM (inactive) and the GI50 (NCI-H460) was 14.5 µM (inactive). The GI50 (HL-60) was 4.06 µM (inactive), the GI50 (DU-145) was 30.1 µM (inactive) and the GI50 (HT-29) was 3.54 µM (inactive). For the same compound, the GI50 (NCI-H522) was 4.93 µM (inactive), the GI50 (786-0) was 7.24 µM (inactive) and the GI50 (NCI/ADR-RES) was 84.7 µM (inactive). For the same compound, the GI50 (SR) was 7.57 µM (inactive) and the GI50 (K562) was 3.26 µM (inactive).

For `CC(=O)Nc1n[n+]([O-])c2cc(C)ccc2[n+]1[O-]`, the GI50 (SW-620) was 2.41 µM (inactive), the GI50 (SK-OV-3) was 5.86 µM (inactive) and the GI50 (RPMI-8226) was 2.83 µM (inactive). For the same compound, the GI50 (M14) was 2.42 µM (inactive), the GI50 (SK-MEL-5) was 1.51 µM (inactive) and the GI50 (OVCAR-5) was 12 µM (inactive). For the same compound, the GI50 (EKVX) was 4.79 µM (inactive), the GI50 (PC-3) was 1.81 µM (inactive) and the GI50 (IGROV-1) was 1.48 µM (inactive). The GI50 (Hs-578T) was 6.61 µM (inactive), the GI50 (SK-MEL-2) was 3.81 µM (inactive) and the GI50 (MDA-MB-435) was 4.72 µM (inactive). The GI50 (OVCAR-3) was 2.4 µM (inactive), the GI50 (HOP-62) was 2.89 µM (inactive) and the GI50 (SNB-75) was 2.88 µM (inactive). For the same compound, the GI50 (Malme-3M) was 3.18 µM (inactive), the GI50 (NCI-H226) was 4.32 µM (inactive) and the GI50 (OVCAR-4) was 4.38 µM (inactive). The GI50 (LOX IMVI) was 2.4 µM (inactive), the GI50 (A549) was 2.44 µM (inactive) and the GI50 (A498) was 5.22 µM (inactive). The GI50 (MDA-N) was 3.56 µM (inactive), the GI50 (KM12) was 3.68 µM (inactive) and the GI50 (SN12C) was 3.05 µM (inactive). For the same compound, the GI50 (UACC-257) was 4.78 µM (inactive), the GI50 (MCF7) was 0.296 µM (active) and the GI50 (UACC-62) was 1.78 µM (inactive). The GI50 (BT-549) was 3.39 µM (inactive), the GI50 (T47D) was 2.34 µM (inactive) and the GI50 (SK-MEL-28) was 17 µM (inactive). For the same compound, the GI50 (HOP-92) was 1.01 µM (active), the GI50 (TK-10) was 22.8 µM (inactive) and the GI50 (U-251) was 2.92 µM (inactive). The GI50 (SF-268) was 3.57 µM (inactive), the GI50 (NCI-H23) was 2.19 µM (inactive) and the GI50 (HCT-15) was 1.7 µM. The GI50 (MDA-MB-231) was 6.81 µM (inactive), the GI50 (CCRF-CEM) was 2.05 µM (inactive) and the GI50 (MOLT-4) was 1.49 µM (inactive). For the same compound, the GI50 (RXF 393) was 5.75 µM (inactive), the GI50 (UO-31) was 3.38 µM (inactive) and the GI50 (HCC 2998) was 3.84 µM (inactive). For the same compound, the GI50 (SF-539) was 1.99 µM (inactive), the GI50 (ACHN) was 2.33 µM (inactive) and the GI50 (COLO 205) was 2.37 µM (inactive). For the same compound, the GI50 (SNB-19) was 4.98 µM (inactive), the GI50 (CAKI-1) was 2.52 µM (inactive) and the GI50 (HCT-116) was 2.08 µM (inactive). The GI50 (SF-295) was 2.5 µM (inactive), the GI50 (OVCAR-8) was 2.96 µM (inactive) and the GI50 (NCI-H460) was 0.378 µM (active). The GI50 (HL-60) was 1.92 µM (inactive), the GI50 (DU-145) was 4.71 µM (inactive) and the GI50 (HT-29) was 2.52 µM (inactive). The GI50 (NCI-H522) was 2.05 µM (inactive), the GI50 (786-0) was 3.26 µM (inactive) and the GI50 (NCI/ADR-RES) was 5.79 µM (inactive). The GI50 (SR) was 2.56 µM (inactive) and the GI50 (K562) was 1.94 µM (inactive).
